The subject of data set [1] is MCF7. The experiment in a line: Cytotoxicity against human MCF7 cells after 7 days by MTT assay. It counts as functional. The following applies: MCF7, 168 h, read-out: ED50 (the source's name). On the technique in general: Tetrazolium dyes change colour on reduction, which living cells bring about.
Data set [2] has as its system PC-3. The experiment in a line: Cytotoxicity against human PC3 cells after 7 days by MTT assay. It counts as functional. The following applies: PC-3, 168 h, read-out: ED50 (the source's name).
In data set [3] the test system is MIA PaCa-2. The experiment in a line: Cytotoxicity against human MIAPaCa2 cells after 7 days by MTT assay. The following applies: MIA PaCa-2, 168 h, read-out: ED50 (the source's name). It counts as functional.
Data set [4] deals with HT-29. The data set can be described thus: Cytotoxicity against human HT29 cells after 7 days by MTT assay. It counts as functional. The following applies: HT-29, 168 h, read-out: ED50 (the source's name).
Data set [5] deals with A549. The data set can be described thus: Cytotoxicity against human A549 cells after 7 days by MTT assay. It counts as functional. The following applies: A549, 168 h, read-out: ED50 (the source's name).
In data set [6] the test system is A498. The data set can be described thus: Cytotoxicity against human A498 cells after 7 days by MTT assay. It counts as functional. The following applies: A498, 168 h, read-out: ED50 (the source's name).
Data set [7] is described as follows: Toxicity against brine shrimp. It counts as organism-based. The following applies: artemia, in vivo.

Molecules are shown by their SMILES. In brackets after ≈: the same amount, converted by molar mass.

For the compound `CC(=O)OC[C@@]1(OC(C)=O)C[C@@]23CC[C@H]4[C@@](C)(CCC[C@@]4(C)C(=O)O)[C@H]2CC[C@@H]1C3`, the EC50 in data set [1] is greater than 20 µg/mL; in data set [2], 17.7 µg/mL (≈ 42.1 µM).

Consider `COC(=O)[C@]1(C)CCC[C@@]2(C)[C@H]3CC[C@@H]4C[C@@]3(CC[C@@H]21)C[C@@H]4C(=O)O`, for which the EC50 in data set [1] was greater than 20 µg/mL; in data set [2], 17.4 µg/mL (≈ 49.9 µM).

Take `COc1cccc2c1C(=O)c1c(O)c3c(c(O)c1C2=O)C[C@@](O)(C(=O)CO)C[C@@H]3O[C@H]1C[C@H](N)[C@H](O)[C@H](C)O1` [DOXORUBICIN]: the EC50 in data set [3] stood at 0.00379 µg/mL (≈ 0.00697 µM); in data set [4] it was 0.0437 µg/mL (≈ 0.0804 µM); in data set [1] it was 0.152 µg/mL (≈ 0.28 µM); in data set [5], 0.00506 µg/mL (≈ 0.00931 µM); in data set [6] it was 0.01 µg/mL (≈ 0.0184 µM); in data set [2] it was 0.0223 µg/mL (≈ 0.041 µM).

What is called LC50 is the concentration lethal to half of the exposed cells or organisms. Read a low LC50 as a more lethal substance. For `C=C1C[C@@]23CC[C@H]4[C@@](C)(CCC[C@@]4(C)C(=O)O)[C@@H]2CC[C@@H]1C3` [KAURENOIC ACID], the EC50 in data set [3] stood at 22.1 µg/mL (≈ 73.2 µM); in data set [4], 31.4 µg/mL (≈ 104 µM); in data set [1], 1 µg/mL (≈ 3.31 µM); in data set [5] it was 13.6 µg/mL (≈ 44.9 µM); in data set [6], 48 µg/mL (≈ 159 µM); in data set [2], 15.2 µg/mL (≈ 50.2 µM). Moreover, the LC50 in data set [7] came out at 16 µg/mL (≈ 52.9 µM).
